From US11419852B2, “Beta-lactam compounds or salts thereof for use in long-acting prevention or treatment of a glucose metabolism disorder” (GLYCOLYSIS BIOMED CO., LTD., priority 2019, dated 2022)
Marks after values point to notes of the source that are not given here.

What was measured:
[1] = Food and water intake of mice; type: in vivo
Description: Four to five weeks old db/db mice (BKS.Cg-Dock7^m+/+Lepr^db/JNarl) and m/m mice (BKS.Cg-Dock7^m+/Dock7^m+) were obtained from National Laboratory Animal Center ([…], Taiwan). […] PMI Nutrition International, Brentwood, Mo.) and water ad libitum. […] The mouse body weight (bw) and the amounts of water and food intake were recorded weekly for the entire study period.

db/db mice = assay: Fasting plasma glucose (FPG) measurement; type: in vivo; settings: for Average FPG level: dosing 6 weeks
Description: Four to five weeks old db/db mice (BKS.Cg-Dock7^m+/+Lepr^db/JNarl) and m/m mice (BKS.Cg-Dock7^m+/Dock7^m+) were obtained from National Laboratory Animal Center (Nangang, Taipei, Taiwan). These animals were maintained in a facility with a 12-h dark-light cycle at 24±2° C. and 65±5% humidity and were provided food (No. 5001; PMI Nutrition International, Brentwood, Mo.) and water ad libitum. For experiments, the average body weight of m/m mice was approximately 20 g, and that of db/db mice was approximately 30 g.
For each mouse, blood was sampled from the tail vein and measured for FPG levels using a blood glucose meter (OneTouch UltraEasy, Johnson & Johnson, USA) at a predestined time point.

[2] = Ex 1: db/db mice, ertapenem i.p. 0.41 mg/g bw/day, 3 weeks
[3] = Ex 3: db/db mice, daily dosing 3 weeks at doses of Table 10

C[C@@H](O)[C@H]1C(=O)N2C(C(=O)O)=C(S[C@@H]3CN[C@H](C(=O)Nc4cccc(C(=O)O)c4)C3)[C@H](C)[C@H]12 [DMH, ertapenem]
Food and water intake vs DB group ([1]; Ex 1: db/db mice, 0.41 mg/g bw/day i.p., entire study period, P<0.05): reduced
Diet intake [1, 2]: 5.0 ± 0.9 g/mice/day
Water intake [1, 2]: 6.8 ± 1.6 mL/mice/day
Food intake in db/db mice ([1]; Ex 3, P<0.05): significantly reduced
Water intake in db/db mice ([1]; Ex 3, P<0.05): significantly reduced
Diet intake [1, 3]: 5.2 ± 1^b g/mice/day
Water intake [1, 3]: 8.4 ± 1^c mL/mice/day
Duration of blood-glucose-lowering effect after treatment was stopped (db/db mice; Ex 2, db/db mice): at least 6 weeks
Lowering blood glucose levels (FPG) in db/db mice (db/db mice; Ex 2, week 3, 0.1 mg/g bw and 0.4 mg/g bw vs metformin 0.3 mg/g bw): as effective as metformin
Average FPG level (db/db mice; Ex 2 G4 db/db, DMH i.p. 0.1 mg/g bw/day, week 0): 139 ± 21^b
Average FPG level (db/db mice; Ex 2 G4 db/db, DMH i.p. 0.1 mg/g bw/day, week 3): 134 ± 21^b
Average FPG level (db/db mice; Ex 2 G4 db/db, DMH i.p. 0.1 mg/g bw/day, week 6): 219 ± 36^b
Average FPG level (db/db mice; Ex 2 G4 db/db, DMH i.p. 0.1 mg/g bw/day, week 9): 217 ± 37^bc
Average FPG level (db/db mice; Ex 2 G4 db/db, DMH i.p. 0.1 mg/g bw/day, week 12): 154 ± 30^ab
Average FPG level (db/db mice; Ex 2 G4 db/db, DMH i.p. 0.1 mg/g bw/day, week 16): 126 ± 43^ab
Average FPG level (db/db mice; Ex 2 G4 db/db, DMH i.p. 0.1 mg/g bw/day, week 18): 263 ± 58^b
Average FPG level (db/db mice; Ex 2 G5 db/db, DMH i.p. 0.2 mg/g bw/day, week 0): 142 ± 20^b
Average FPG level (db/db mice; Ex 2 G5 db/db, DMH i.p. 0.2 mg/g bw/day, week 3): 158 ± 25^bc
Average FPG level (db/db mice; Ex 2 G5 db/db, DMH i.p. 0.2 mg/g bw/day, week 6): 166 ± 21^b
Average FPG level (db/db mice; Ex 2 G5 db/db, DMH i.p. 0.2 mg/g bw/day, week 9): 212 ± 30^bc
Average FPG level (db/db mice; Ex 2 G5 db/db, DMH i.p. 0.2 mg/g bw/day, week 12): 191 ± 42^bc
Average FPG level (db/db mice; Ex 2 G5 db/db, DMH i.p. 0.2 mg/g bw/day, week 16): 154 ± 56^ab
Average FPG level (db/db mice; Ex 2 G5 db/db, DMH i.p. 0.2 mg/g bw/day, week 18): 308 ± 51^b
Average FPG level (db/db mice; Ex 2 G6 db/db, DMH i.p. 0.4 mg/g bw/day, week 0): 141 ± 23^b
Average FPG level (db/db mice; Ex 2 G6 db/db, DMH i.p. 0.4 mg/g bw/day, week 3): 121 ± 23^ab
Average FPG level (db/db mice; Ex 2 G6 db/db, DMH i.p. 0.4 mg/g bw/day, week 6): 175 ± 30^b
Average FPG level (db/db mice; Ex 2 G6 db/db, DMH i.p. 0.4 mg/g bw/day, week 9): 172 ± 27^b
Average FPG level (db/db mice; Ex 2 G6 db/db, DMH i.p. 0.4 mg/g bw/day, week 12): 166 ± 26^ac
Average FPG level (db/db mice; Ex 2 G6 db/db, DMH i.p. 0.4 mg/g bw/day, week 16): 108 ± 22^ab
Average FPG level (db/db mice; Ex 2 G6 db/db, DMH i.p. 0.4 mg/g bw/day, week 18): 266 ± 35^b

CN(C)C(=N)N=C(N)N [Met, metformin]
Diet intake [1, 3]: 6.2 ± 1^c g/mice/day
Water intake [1, 3]: 12.1 ± 1^d mL/mice/day
Average FPG level (db/db mice; Ex 2 G3 db/db, Met oral 0.3 mg/g bw/day, week 0): 160 ± 21^b
Average FPG level (db/db mice; Ex 2 G3 db/db, Met oral 0.3 mg/g bw/day, week 3): 136 ± 13^b
Average FPG level (db/db mice; Ex 2 G3 db/db, Met oral 0.3 mg/g bw/day, week 6): 222 ± 30^b
Average FPG level (db/db mice; Ex 2 G3 db/db, Met oral 0.3 mg/g bw/day, week 9): 310 ± 25^d
Average FPG level (db/db mice; Ex 2 G3 db/db, Met oral 0.3 mg/g bw/day, week 12): 267 ± 43^cd
Average FPG level (db/db mice; Ex 2 G3 db/db, Met oral 0.3 mg/g bw/day, week 16): 215 ± 27^b
Average FPG level (db/db mice; Ex 2 G3 db/db, Met oral 0.3 mg/g bw/day, week 18): 346 ± 50^b
